For 16 molecules, GI50 and IC50 results are on record in patent publication US20260124197A1, “NOVEL HETEROBICYCLIC COMPOUND FOR INHIBITING YAP-TEAD INTERACTION AND PHARMACEUTICAL COMPOSITION COMPRISING SAME” (priority 2022, published 2026).

One assay relates to NCI-H226 cells. As to the kind of experiment: Cell growth inhibition test (SRB). It counts as cell-based. Conditions: Homo sapiens, 144 h; NCI-H226 mesothelioma cell line lacking the NF2 gene, cultured for 6 days, SRB test method. On the procedure: Experimental Example 2: Cell Growth Inhibition Test
The synthetic compound was confirmed to inhibit cell growth in NCI-H226 cells. NCI-H226 is a mesothelioma cancer cell line lacking the NF2 gene, and was cultured in RPMI 1640 medium supplemented added with 10% FBS and 1% Penicillin/Streptomycin. Cultured cells were dispensed into 96-well plates at 0.7×10^3 cells/100 μl and cultured for 24 hours, then 100 μl of the test compound diluted to a 2× concentration were mixed into each well and cultured for 6 days. The SRB test method was used to measure cell growth inhibition, and the 50% inhibition value (GI50) for cell growth by the compound was calculated using GraphPad Prism 9.
If the GI50 value is less than 100 nM, it is indicated as A, and if it is 100 nM or more, it is indicated as B.

Assay [1] relates to TEAD transcriptional activity. As to the kind of experiment: TEAD reporter activity inhibition test (luciferase reporter, MCF7 cell line). It counts as cell-based. Conditions: Homo sapiens; TEAD (GTIIC) firefly luciferase reporter MCF7 cell line, 24 hours, ONE-Glo luminescence. The method, then: Experimental Example 1: TEAD Reporter Activity Inhibition Test
The ability of the synthetic compounds to inhibit TEAD target gene transcription was measured. This evaluation method measures the transcriptional activity of TEAD by measuring the luciferase luminescence expressed when TEAD binds to a target gene and activates transcription using the MCF7 cell line (BPS Bioscience, Inc., USA) in which a firefly luciferase reporter gene has been introduced into the specific binding structure of TEAD, GTIIC (5′-ACATTCCA-3′). Cell lines were cultured in MEM medium added with 10% FBS, 1% Penicillin/Streptomycin, 1% non-essential amino acids, 10 μg/ml insulin, and 400 μg/ml Geneticin, and Geneticin was excluded when testing for inhibition of TEAD reporter activity. […] cells/100 μl were dispensed into a white 96-well plate and cultured for 6 hours. 50 μl of the test compound diluted to 3× concentration was mixed into each well. After 24 hours of cell culture, the luciferase signal was measured by luminescence using the ONE-Glo luciferase assay system (Promega, E6120) following the manufacturer's protocol. The 50% inhibition value (IC50) for TEAD transcriptional activity was calculated using GraphPad Prism 9.
If the IC50 value is less than 100 nM, it is indicated as A, if it is at least 100 nM but less than 500 nM, it is indicated as B, and if it is 500 nM or more, it is indicated as C.

The structures appear in SMILES notation. pIC50: −log10 of the molar value.

As usually defined, the GI50 is the concentration at which growth is held to half of that of the control. Higher therefore signals lower sensitivity of the cells. For orientation: pIC50 means the IC50 on a negative log10 scale, so that one unit is a factor of ten. Molecule `CNS(=O)(=O)c1ccc2c(c1)c(-c1cn(C)cn1)cn2-c1ccc(C(F)(F)F)cc1` [Example 2, N-methyl-3-(1-methyl-1H-imidazol-4-yl)-1-(4-(trifluoromethyl)phenyl)-1H-indole-5-sulfonamide] yielded a GI50 in the assay with NCI-H226 cells of under 100 nM. The pIC50 in assay [1] was over 7.00.

In the assay with NCI-H226 cells, `CNS(=O)(=O)c1ccc2c(c1)c(-c1ccccn1)cn2-c1ccc(C(F)(F)F)cc1` [Example 8, N-methyl-3-(pyridin-2-yl)-1-(4-(trifluoromethyl)phenyl)-1H-indole-5-sulfonamide] gave a 50% growth inhibitory concentration (GI50) of under 100 nM. Further, in assay [1], the negative logarithm of the IC50 (pIC50) is over 7.00.

In turn, `CNS(=O)(=O)c1ccc2c(c1)c(-c1ccc(C)o1)cn2-c1ccc(C(F)(F)F)cc1` [Example 10, N-methyl-3-(5-methylfuran-2-yl)-1-(4-(trifluoromethyl)phenyl)-1H-indole-5-sulfonamide] gave a concentration for 50% growth inhibition (GI50) in the assay on NCI-H226 cells of under 100 nM. The molecule also had a pIC50 in assay [1] of over 7.00.

Consider `CCn1cnc(-c2cn(-c3ccc(C(F)(F)F)cc3)c3ccc(S(=O)(=O)NC)cc23)c1` [Example 11, 3-(1-ethyl-1H-imidazol-4-yl)-N-methyl-1-(4-(trifluoromethyl)phenyl)-1H-indole-5-sulfonamide], for which, in the assay on NCI-H226 cells, the concentration for 50% growth inhibition (GI50) was under 100 nM. Also, in assay [1], the negative logarithm of the IC50 (pIC50) is over 7.00.

On to `CNS(=O)(=O)c1ccc2c(c1)c(-c1ccccc1F)cn2-c1ccc(C(F)(F)F)cc1` [Example 13, 3-(2-fluorophenyl)-N-methyl-1-(4-(trifluoromethyl)phenyl)-1H-indole-5-sulfonamide], for which the 50% growth inhibitory concentration (GI50) in the assay with NCI-H226 cells is at least 100 nM. Also, the pIC50 in assay [1] is over 7.00.

In the assay on NCI-H226 cells, `CNS(=O)(=O)c1ccc2c(c1)c(-c1cn(C3CCC3)cn1)cn2-c1ccc(C(F)(F)F)cc1` [Example 16] showed a GI50 of under 100 nM. In assay [1], this molecule had a pIC50 of over 7.00.

The molecule `CNS(=O)(=O)c1ccc2c(c1)c(-c1ncccc1F)cn2-c1ccc(C(F)(F)F)cc1` [Example 20, 3-(3-fluoropyridin-2-yl)-N-methyl-1-(4-(trifluoromethyl)phenyl)-1H-indole-5-sulfonamide] gave a concentration for 50% growth inhibition (GI50) with NCI-H226 cells of under 100 nM. This molecule also had a negative logarithm of the IC50 (pIC50) in assay [1] of over 7.00.

With `CNS(=O)(=O)c1ccc2c(c1)c(-c1ccoc1)cn2-c1ccc(C(F)(F)F)cc1` [Example 23, 3-(furan-3-yl)-N-methyl-1-(4-(trifluoromethyl)phenyl)-1H-indole-5-sulfonamide], in the assay with NCI-H226 cells, the GI50 is under 100 nM. Moreover, the negative-log IC50 (pIC50) in assay [1] was over 7.00.

Molecule `CNS(=O)(=O)c1ccc2c(c1)c(-c1cn(C3CC3)cn1)cn2-c1ccc(C(F)(F)F)cc1` [Example 28, 3-(1-cyclopropyl-1H-imidazol-4-yl)-N-methyl-1-(4-(trifluoromethyl)phenyl)-1H-indole-5-sulfonamide] returned a GI50 with NCI-H226 cells of under 100 nM. In assay [1], this molecule showed a negative-log IC50 (pIC50) of over 7.00.

Consider `CNS(=O)(=O)c1ccc2c(c1)c(-c1ccco1)cn2-c1ccc(C(F)(F)F)cc1` [Example 31, 3-(furan-2-yl)-N-methyl-1-(4-(trifluoromethyl)phenyl)-1H-indole-5-sulfonamide], for which the GI50 in the assay with NCI-H226 cells is under 100 nM. For the same molecule, in assay [1], the pIC50 was over 7.00.

As to `CNS(=O)(=O)c1ccc2c(c1)c(-c1cnc(C)o1)cn2-c1ccc(C(F)(F)F)cc1` [Example 32, N-methyl-3-(2-methyloxazol-5-yl)-1-(4-(trifluoromethyl)phenyl)-1H-indole-5-sulfonamide], the GI50 in the assay on NCI-H226 cells is under 100 nM. In assay [1], this molecule had a pIC50 of over 7.00.

In turn, `CNS(=O)(=O)c1ccc2c(c1)c(-c1cn(CCOC)cn1)cn2-c1ccc(C(F)(F)F)cc1` [Example 38, 3-(1-(2-methoxyethyl)-1H-imidazol-4-yl)-N-methyl-1-(4-(trifluoromethyl)phenyl)-1H-indole-5-sulfonamide] returned a 50% growth inhibitory concentration (GI50) in the assay on NCI-H226 cells of under 100 nM. The molecule also had a pIC50 in assay [1] of over 7.00.

Turning to `CNS(=O)(=O)c1ccc2c(c1)c(-c1cn(C3CC3)cn1)cn2-c1ccc(C(F)(F)F)cc1F` [Example 42, 3-(1-cyclopropyl-1H-imidazol-4-yl)-1-(2-fluoro-4-(trifluoromethyl)phenyl)-N-methyl-1H-indole-5-sulfonamide], in the assay on NCI-H226 cells, the GI50 was under 100 nM. Further, in assay [1], the pIC50 was over 7.00.

Take `CNS(=O)(=O)c1cnc2c(c1)c(-c1cn(C3CC3)cn1)cn2-c1ccc(C(F)(F)F)cc1` [Example 43, 3-(1-cyclopropyl-1H-imidazol-4-yl)-N-methyl-1-(4-(trifluoromethyl)phenyl)-1H-pyrrolo[2,3-b]pyridine-5-sulfonamide]: the GI50 in the assay on NCI-H226 cells is under 100 nM. Besides, the pIC50 in assay [1] was over 7.00.

In the case of `CNS(=O)(=O)c1ccc2c(c1)c(-c1cn(C3CC3)cn1)nn2-c1ccc(C(F)(F)F)cc1` [Example 44, 3-(1-cyclopropyl-1H-imidazol-4-yl)-N-methyl-1-(4-(trifluoromethyl)phenyl)-1H-indazol-5-sulfonamide], the GI50 in the assay on NCI-H226 cells was under 100 nM. Also, in assay [1], the negative-log IC50 (pIC50) was over 7.00.

For the molecule `CNS(=O)(=O)c1ccc2c(c1)c(-c1cn(CCS(C)(=O)=O)cn1)cn2-c1ccc(C(F)(F)F)cc1` [Example 48, N-methyl-3-(1-(2-(methylsulfonyl)ethyl)-1H-imidazol-4-yl)-1-(4-(trifluoromethyl)phenyl)-1H-indole-5-sulfonamide], the negative logarithm of the IC50 (pIC50) in assay [1] was 6.30 to 7.00.
